Measurements published in US8952024B2, “Herbicidal pyrimidone derivatives” (E I du Pont de Nemours and Company, priority 2009, dated 2015).

Assays:
Type in all cases: in vivo
[1] = test system: lambsquarters (Chenopodium album); assay: Test B pre-/postemergence plant response
Summary of the method: (§1)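 Plants treated either at seeding (loam/sand soil) or postemergence at 2 to 18 cm height, using a surfactant-containing non-phytotoxic solvent formulation. Evaluation was visual after 13 to 15 days, 0 to 100 scale relative to controls.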

wild oat (Avena fatua) = assay: Test B pre-/postemergence plant response
Summary of the method: as §1

[2] = test system: johnsongrass (Sorghum halepense); assay: Test B pre-/postemergence plant response
Summary of the method: as §1

[3] = test system: Surinam grass (Brachiaria decumbens); assay: Test B pre-/postemergence plant response
Summary of the method: as §1

[4] = test system: ragweed (common ragweed, Ambrosia elatior); assay: Test B pre-/postemergence plant response
Summary of the method: as §1

[5] = test system: goosegrass (Eleusine indica); assay: Test B pre-/postemergence plant response
Summary of the method: as §1

[6] = test system: blackgrass (Alopecurus myosuroides); assay: Test B pre-/postemergence plant response
Summary of the method: as §1

corn (Zea mays) = assay: Test B pre-/postemergence plant response
Summary of the method: as §1

[7] = test system: giant foxtail (Setaria faberii); assay: Test B pre-/postemergence plant response
Summary of the method: as §1

[8] = test system: pigweed (Amaranthus retroflexus); assay: Test B pre-/postemergence plant response
Summary of the method: as §1

[9] = test system: green foxtail (Setaria viridis); assay: Test B pre-/postemergence plant response
Summary of the method: as §1

[10] = test system: umbrella sedge (Cyperus difformis); assay: Test B flooded paddy test; conditions: for Plant response rating, Flood, Sedge, Umbrella: 250 g ai/ha, flooded paddy test, visual rating on 0 to 100 scale (0 no effect, 100 complete control) after 13 to 15 days; for Plant response rating, Sedge, Umbrella: Flood (flooded paddy test), 13 to 15 days
Summary of the method: (§2)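 Flooded-pot test: water raised to 3 cm above soil when treating, compound put in the water, level unchanged thereafter. Plants were at 2 leaves. Readout after 13 to 15 days, visual, relative to controls; 0 signifies no effect and 100 complete control.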

rice (Oryza sativa) = assay: Test B flooded paddy test; conditions: for Plant response rating, Flood, Rice: 250 g ai/ha, flooded paddy test, visual rating on 0 to 100 scale (0 no effect, 100 complete control) after 13 to 15 days; for Plant response rating, Rice: Flood (flooded paddy test), 13 to 15 days
Summary of the method: as §2

[11] = 250 g ai/ha, Preemergence, 0 to 100 scale
[12] = Postemergence, 31 g ai/ha, scale 0 to 100 (0 no effect, 100 complete control)
[13] = Postemergence, 62 g ai/ha, scale 0 (no effect) to 100 (complete control), 13 to 15 days
[14] = Postemergence, 125 g ai/ha, visual rating after 13 to 15 days, scale 0 (no effect) to 100 (complete control)
[15] = Postemergence, 250 g ai/ha, scale 0 to 100
[16] = Preemergence, 31 g ai/ha, scale 0 to 100 (0 no effect, 100 complete control)
[17] = Preemergence, 62 g ai/ha, scale 0 to 100 (0 no effect, 100 complete control)
[18] = Preemergence, 125 g ai/ha, 0 to 100 scale
[19] = 62 g ai/ha, scale 0 to 100, 0 is no effect, 100 is complete control
[20] = 31 g ai/ha, scale of 0 to 100 where 0 is no effect and 100 is complete control
[21] = 125 g ai/ha, scale 0 to 100, 0 is no effect, 100 is complete control

O=C1CCCC(O)=C1C(=O)c1cnc(-c2ccccc2)n(-c2ccccc2F)c1=O [Compound 26]
Plant response rating, Lambsquarters [1, 11]: 100 | Plant response rating, Lambsquarters [1, 12]: 80 | Plant response rating, Lambsquarters [1, 13]: 90 | Plant response rating, Lambsquarters [1, 14]: 90 | Lambsquarters plant response rating [1, 15]: 98 | Plant response rating, Lambsquarters [1, 16]: 98 | Plant response rating, Lambsquarters [1, 17]: 100 | Lambsquarters plant response rating [1, 18]: 100 | Plant response rating, Oat, Wild (wild oat (Avena fatua); [11]): 5 | Plant response rating, Oat, Wild (wild oat (Avena fatua); [12]): 40 | Plant response rating, Oat, Wild (wild oat (Avena fatua); [13]): 40 | Plant response rating, Oat, Wild (wild oat (Avena fatua); [14]): 45 | Oat, Wild plant response rating (wild oat (Avena fatua); [15]): 60 | Plant response rating, Oat, Wild (wild oat (Avena fatua); [16]): 0 | Plant response rating, Oat, Wild (wild oat (Avena fatua); [17]): 0 | Oat, Wild plant response rating (wild oat (Avena fatua); [18]): 0 | Plant response rating, Johnsongrass [2, 11]: 90 | Plant response rating, Johnsongrass [2, 12]: 35 | Plant response rating, Johnsongrass [2, 13]: 50 | Plant response rating, Johnsongrass [2, 14]: 50 | Johnsongrass plant response rating [2, 15]: 70 | Plant response rating, Johnsongrass [2, 16]: 0 | Plant response rating, Johnsongrass [2, 17]: 10 | Johnsongrass plant response rating [2, 18]: 60 | Plant response rating, Surinam Grass [3, 11]: 90 | Plant response rating, Surinam Grass [3, 12]: 30 | Plant response rating, Surinam Grass [3, 13]: 40 | Plant response rating, Surinam Grass [3, 14]: 60 | Surinam Grass plant response rating [3, 15]: 60 | Plant response rating, Surinam Grass [3, 16]: 0 | Plant response rating, Surinam Grass [3, 17]: 5 | Surinam Grass plant response rating [3, 18]: 90 | Plant response rating, Ragweed [4, 11]: 100 | Plant response rating, Ragweed [4, 12]: 70 | Plant response rating, Ragweed [4, 13]: 85 | Plant response rating, Ragweed [4, 14]: 98 | Ragweed plant response rating [4, 15]: 100 | Plant response rating, Ragweed [4, 16]: 65 | Plant response rating, Ragweed [4, 17]: 85 | Ragweed plant response rating [4, 18]: 95 | Plant response rating, Goosegrass [5, 11]: 100 | Plant response rating, Goosegrass [5, 12]: 60 | Plant response rating, Goosegrass [5, 13]: 90 | Plant response rating, Goosegrass [5, 14]: 95 | Goosegrass plant response rating [5, 15]: 95 | Plant response rating, Goosegrass [5, 16]: 5 | Goosegrass plant response rating [5, 18]: 95 | Plant response rating, Blackgrass [6, 11]: 10 | Plant response rating, Blackgrass [6, 12]: 0 | Plant response rating, Blackgrass [6, 13]: 0 | Plant response rating, Blackgrass [6, 14]: 10 | Blackgrass plant response rating [6, 15]: 40 | Plant response rating, Blackgrass [6, 16]: 0 | Plant response rating, Blackgrass [6, 17]: 0 | Blackgrass plant response rating [6, 18]: 0 | Plant response rating, Corn (corn (Zea mays); [11]): 0 | Plant response rating, Corn (corn (Zea mays); [12]): 35 | Plant response rating, Corn (corn (Zea mays); [13]): 35 | Plant response rating, Corn (corn (Zea mays); [14]): 40 | Corn plant response rating (corn (Zea mays); [15]): 50 | Plant response rating, Corn (corn (Zea mays); [16]): 0 | Plant response rating, Corn (corn (Zea mays); [17]): 0 | Corn plant response rating (corn (Zea mays); [18]): 0 | Plant response rating, Foxtail, Giant [7, 11]: 90 | Plant response rating, Foxtail, Giant [7, 12]: 60 | Plant response rating, Foxtail, Giant [7, 13]: 60 | Plant response rating, Foxtail, Giant [7, 14]: 70 | Foxtail, Giant plant response rating [7, 15]: 95 | Plant response rating, Foxtail, Giant [7, 16]: 5 | Plant response rating, Foxtail, Giant [7, 17]: 10 | Foxtail, Giant plant response rating [7, 18]: 45 | Plant response rating, Pigweed [8, 11]: 100 | Plant response rating, Pigweed [8, 12]: 50 | Plant response rating, Pigweed [8, 13]: 80 | Plant response rating, Pigweed [8, 14]: 85 | Pigweed plant response rating [8, 15]: 98 | Plant response rating, Pigweed [8, 16]: 98 | Plant response rating, Pigweed [8, 17]: 100 | Pigweed plant response rating [8, 18]: 100 | Plant response rating, Foxtail, Green [9, 11]: 70 | Plant response rating, Foxtail, Green [9, 12]: 35 | Plant response rating, Foxtail, Green [9, 13]: 40 | Plant response rating, Foxtail, Green [9, 14]: 85 | Foxtail, Green plant response rating [9, 15]: 95 | Plant response rating, Foxtail, Green [9, 16]: 0 | Plant response rating, Foxtail, Green [9, 17]: 0 | Foxtail, Green plant response rating [9, 18]: 30 | Plant response rating, Flood, Sedge, Umbrella [10]: 85 | Plant response rating, Sedge, Umbrella [10, 19]: 75 | Plant response rating, Flood, Rice (rice (Oryza sativa)): 0 | Plant response rating, Rice (rice (Oryza sativa); [19]): 0

Cc1cc(C)cc(-n2c(-c3ccccc3)ncc(C(=O)C3=C(O)CCCC3=O)c2=O)c1 [Compound 33]
Plant response rating, Lambsquarters [1, 11]: 100 | Plant response rating, Lambsquarters [1, 13]: 98 | Plant response rating, Lambsquarters [1, 14]: 98 | Lambsquarters plant response rating [1, 15]: 100 | Plant response rating, Lambsquarters [1, 16]: 98 | Plant response rating, Lambsquarters [1, 17]: 100 | Lambsquarters plant response rating [1, 18]: 100 | Plant response rating, Oat, Wild (wild oat (Avena fatua); [11]): 50 | Plant response rating, Oat, Wild (wild oat (Avena fatua); [13]): 15 | Plant response rating, Oat, Wild (wild oat (Avena fatua); [14]): 40 | Plant response rating, Oat, Wild (wild oat (Avena fatua); [16]): 0 | Plant response rating, Oat, Wild (wild oat (Avena fatua); [17]): 0 | Oat, Wild plant response rating (wild oat (Avena fatua); [18]): 30 | Plant response rating, Johnsongrass [2, 11]: 20 | Plant response rating, Johnsongrass [2, 13]: 35 | Plant response rating, Johnsongrass [2, 14]: 35 | Johnsongrass plant response rating [2, 15]: 40 | Plant response rating, Johnsongrass [2, 16]: 0 | Plant response rating, Johnsongrass [2, 17]: 0 | Johnsongrass plant response rating [2, 18]: 0 | Plant response rating, Surinam Grass [3, 11]: 100 | Plant response rating, Surinam Grass [3, 13]: 65 | Plant response rating, Surinam Grass [3, 14]: 75 | Plant response rating, Surinam Grass [3, 16]: 0 | Plant response rating, Surinam Grass [3, 17]: 65 | Surinam Grass plant response rating [3, 18]: 95 | Plant response rating, Ragweed [4, 11]: 100 | Plant response rating, Ragweed [4, 13]: 95 | Plant response rating, Ragweed [4, 14]: 98 | Plant response rating, Ragweed [4, 16]: 80 | Plant response rating, Ragweed [4, 17]: 85 | Ragweed plant response rating [4, 18]: 100 | Plant response rating, Goosegrass [5, 11]: 98 | Plant response rating, Goosegrass [5, 13]: 75 | Plant response rating, Goosegrass [5, 14]: 85 | Goosegrass plant response rating [5, 15]: 85 | Plant response rating, Goosegrass [5, 16]: 80 | Goosegrass plant response rating [5, 18]: 90 | Plant response rating, Blackgrass [6, 11]: 30 | Plant response rating, Blackgrass [6, 12]: 10 | Plant response rating, Blackgrass [6, 13]: 15 | Plant response rating, Blackgrass [6, 14]: 30 | Blackgrass plant response rating [6, 15]: 30 | Plant response rating, Blackgrass [6, 16]: 0 | Plant response rating, Blackgrass [6, 17]: 0 | Blackgrass plant response rating [6, 18]: 10 | Plant response rating, Corn (corn (Zea mays); [11]): 0 | Plant response rating, Corn (corn (Zea mays); [12]): 0 | Plant response rating, Corn (corn (Zea mays); [13]): 10 | Plant response rating, Corn (corn (Zea mays); [14]): 10 | Corn plant response rating (corn (Zea mays); [15]): 15 | Plant response rating, Corn (corn (Zea mays); [16]): 0 | Plant response rating, Corn (corn (Zea mays); [17]): 0 | Corn plant response rating (corn (Zea mays); [18]): 0 | Plant response rating, Foxtail, Giant [7, 11]: 98 | Plant response rating, Foxtail, Giant [7, 12]: 75 | Plant response rating, Foxtail, Giant [7, 13]: 80 | Plant response rating, Foxtail, Giant [7, 14]: 85 | Foxtail, Giant plant response rating [7, 15]: 95 | Plant response rating, Foxtail, Giant [7, 16]: 10 | Plant response rating, Foxtail, Giant [7, 17]: 45 | Foxtail, Giant plant response rating [7, 18]: 95 | Plant response rating, Pigweed [8, 11]: 100 | Plant response rating, Pigweed [8, 13]: 95 | Plant response rating, Pigweed [8, 14]: 98 | Plant response rating, Pigweed [8, 16]: 100 | Plant response rating, Pigweed [8, 17]: 100 | Pigweed plant response rating [8, 18]: 100 | Plant response rating, Foxtail, Green [9, 11]: 100 | Plant response rating, Foxtail, Green [9, 12]: 50 | Plant response rating, Foxtail, Green [9, 13]: 85 | Plant response rating, Foxtail, Green [9, 14]: 90 | Foxtail, Green plant response rating [9, 15]: 90 | Plant response rating, Foxtail, Green [9, 16]: 0 | Plant response rating, Foxtail, Green [9, 17]: 45 | Foxtail, Green plant response rating [9, 18]: 100 | Plant response rating, Flood, Sedge, Umbrella [10]: 85 | Plant response rating, Sedge, Umbrella [10, 20]: 20 | Plant response rating, Sedge, Umbrella [10, 19]: 30 | Plant response rating, Sedge, Umbrella [10, 21]: 50 | Plant response rating, Flood, Rice (rice (Oryza sativa)): 50 | Plant response rating, Rice (rice (Oryza sativa); [20]): 0 | Plant response rating, Rice (rice (Oryza sativa); [19]): 0 | Plant response rating, Rice (rice (Oryza sativa); [21]): 20
